Legend:
[1] = tested on: airway neutrophils; test: Murine model of LPS/G-CSF/IL-6/IFNγ cocktail-induced airway neutrophilic inflammation; type: in vivo, Balb/C mice; conditions: mouse, 1.0 mg/mL 50 μL oropharyngeal aspiration, BALF at twenty-four hours
Description: Airway neutrophilia is a hallmark of a range of respiratory disease in humans. Compound 1 was tested in a model of neutrophilic airway inflammation using a LPS/G-CSF/IL-6/IFNγ cocktail to induce airway neutrophilia.
Seven- to nine-week old male Balb/C (wildtype) mice from Jackson Laboratory were used in the study. On the day of study, animals were lightly anesthetized with isoflurane and administered either vehicle or test compound (1.0 mg/mL, 50 μL total volume over several breaths) via oropharyngeal aspiration. Animals were placed in lateral recumbency post dose and monitored for full recovery from anesthesia before being returned to their home cage. One hour later, animals were once again briefly anesthetized and challenged with either vehicle or LPS; 0.01 mg/kg/G-CSF; 5 μg/IL-6; 5 μg/IFNγ; 5 μg (100 μL total volume) via oropharyngeal aspiration (OA). Twenty-four hours after the LPS/G-CSF/IL-6/IFNγ cocktail administration, bronchoalveolar lavage fluid (BALF) was collected and neutrophils were counted.

[2] = Pharmacokinetics in plasma and lung in mouse; type: in vivo, BALB/c mice; conditions: oral aspiration, 0.2 mg/mL, 50 uL
Description: Plasma and lung levels of the test compound and the ratio thereof was determined in the following manner. BALB/c mice from Charles River Laboratories were used in the assay. Test compounds were individually formulated in 20% propylene glycol in pH 4 citrate buffer at a concentration of 0.2 mg/mL and 50 uL of the dosing solution was introduced into the trachea of a mouse by oral aspiration. At various time points (typically 0.167, 2, 6, 24 hr) post dosing, blood samples were removed via cardiac puncture and intact lungs were excised from the mice. Blood samples were centrifuged (Eppendorf centrifuge, 5804R) for 4 minutes at approximately 12,000 rpm at 4° C. to collect plasma. Lungs were padded dry, weighed, and homogenized at a dilution of 1:3 in sterile water. Plasma and lung levels of test compound were determined by LC-MS analysis against analytical standards constructed into a standard curve in the test matrix. A lung to plasma ratio was determined as the ratio of the lung AUC in μg hr/g to the plasma AUC in μg hr/mL, where AUC is conventionally defined as the area under the curve of test compound concentration vs. time.

[3] = tested on: IFNγ induced IP-10 protein levels; test: Pharmacodynamic assay: inhibition of IFNγ-induced IP-10 in rabbits; type: in vivo, New Zealand White rabbits
Description: The ability of a single intravitreal administration of test compound to inhibit interferon-gamma (IFNγ) induced IP-10 protein levels was measured in rabbit vitreous and retina/choroid tissues.
Solution formulations at concentrations of 1 mg/mL and 4 mg/mL of compound 1 of Example 1 were prepared as in Assay 8. A suspension formulation was prepared by combining crystalline compound 1 of Example 1 with 0.5% hydroxypropyl methylcellulose (HPMC E5), 0.02% Tween 80, and 9 mg/mL sodium chloride in purified water to attain a target concentration of 20 mg/mL.
Male, New Zealand White rabbits (Liveon Biolabs, India) were used for the studies. Animals were acclimated after arrival at the research facilities (Jubilant Biosys Ltd., India). Each rabbit was given a total of two intravitreal (IVT) injections with a total dose volume of 50 μL per eye. The first IVT injection (45 μL per eye) delivered test compound or vehicle at a prescribed time point (i.e. 24 hours for the solution formulations or 1 week for the suspension formulation). The second IVT injection (5 μL per eye) delivered IFNγ (1 μg/eye; Stock solution 1 mg/mL; Kingfisher Biotech) or vehicle for the induction of IP-10. In brief, on the day of the injections, rabbits were anesthetized with an intramuscular injection of ketamine (35 mg/kg) and xylazine (5 mg/kg). Once deeply anesthetized, each eye was rinsed with sterile saline and IVT injections were performed using a 0.5 mL insulin syringe (50 units=0.5 mL) with a 31-gauge needle at the supra-nasal side of the both eyes by marking the position with a Braunstein fixed caliper (2¾″) 3.5 mm from the rectus muscle and 4 mm from the limbus.
Tissues were collected 24 hours after the second IVT injection with IFNγ. Vitreous humor (VH) and retina/choroid tissues (R/C) were collected and homogenized, and IP-10 protein levels were measured using a rabbit CXCL10 (IP-10) ELISA kit (Kingfisher Biotech). The percent inhibition of IFNγ-induced IP-10 was calculated in comparison to the vehicle/vehicle and vehicle/IFNγ groups.

[4] = Ocular pharmacokinetics in rabbit eyes; type: in vivo, New Zealand white rabbits; conditions: intravitreal injection, listed as compound of the invention
Description: The objective of this assay was to determine the pharmacokinetics of the test compound in rabbit ocular tissues.
The compound of the invention, 5-ethyl-2-fluoro-4-(3-(5-(1-methylpiperidin-4-yl)-4,5,6,7-tetrahydro-1H-imidazo[4,5-c]pyridin-2-yl)-1H-indazol-6-yl)phenol (1) was dissolved in either 10% 2-hydroxypropyl-β-cyclodextrin to attain a target concentration of 4 mg/mL or in purified water to attain a target concentration of 1 mg/mL. Bilateral intravitreal injection (50 μL/eye) of the solution of test compound was administered to New Zealand white rabbits in two dose groups, 200 μg/eye and 50 μg/eye, respectively, for the cyclodextrin and water vehicle formulations, respectively. The test compound concentration was measured in ocular tissues: vitreous, aqueous, retina/choroid and iris-ciliary body at pre-determined time points post injection (30 min, 4 h, 1 d, 3 d, 7 d, 14 d). Two rabbits (four eyes) were dosed for each time point.
A suspension formulation was prepared by combining crystalline compound 1 of Example 1 with 0.5% hydroxypropyl methylcellulose (HPMC E5)+0.02% Tween 80 to attain a target concentration of 10 mg/mL. Bilateral intravitreal injection (50 μL/eye) of the suspension of test compound was administered to New Zealand white rabbits (500 μg/eye). The test compound concentration was measured in ocular tissues as in the […] at 30 min, 2 wks, 4 wks, 6 wks, and 8 wks post injection. […] The behavior is consistent with the solubility of compound 1 in the vehicle and the ocular pharmacokinetic behavior in the solution formulation. The drug concentration in plasma was measured and found to be at least 3 orders of magnitude lower than the concentration in vitreous tissue.

exposure in lung relative to exposure in plasma (lung AUC to plasma AUC ratio) [2]: about 55 times
drug concentration in plasma lower than concentration in vitreous tissue [4]: at least three orders of magnitude lower
SMILES: CCc1cc(O)c(F)cc1-c1ccc2c(-c3nc4c([nH]3)CCN(C3CCN(C)CC3)C4)n[nH]c2c1 [compound 1, 5-ethyl-2-fluoro-4-(3-(5-(1-methylpiperidin-4-yl)-4,5,6,7-tetrahydro-1H-imidazo[4,5-c]pyridin-2-yl)-1H-indazol-6-yl)phenol]
reduction of the airway neutrophils compared to vehicle treated mice [1]: 84%
inhibition of IFNγ-induced IP-10 ([3]; rabbit retina/choroid tissue, 45 μg solution, 24 hour pre-treatment): 86
inhibition of IFNγ-induced IP-10 ([3]; rabbit retina/choroid tissue, 180 μg solution, 24 hour pre-treatment): 100%
inhibition of IFNγ-induced IP-10 ([3]; rabbit retina/choroid tissue, crystalline suspension 20 mg/mL, 1 week pre-treatment): 100%
inhibition of IFNγ-induced IP-10 ([3]; rabbit vitreous humor, 45 μg solution, 24 hour pre-treatment): 70%
inhibition of IFNγ-induced IP-10 ([3]; rabbit vitreous humor, 180 μg solution, 24 hour pre-treatment): 91%
inhibition of IFNγ-induced IP-10 ([3]; rabbit vitreous humor, crystalline suspension 20 mg/mL, 1 week pre-treatment): 100%

— patent US11786517B2, “Methods of treatment using a JAK inhibitor compound” (THERAVANCE BIOPHARMA R&D IP, LLC, priority 2017, dated 2023)
